The record followed here is ChEMBL document CHEMBL1201862, “PubChem BioAssay data set” (2004).

Assay [1] is described as follows: Shn3 3'UTR reporter inhibitors, dose response, cell-based, Clone20 osteoblasts, firefly luciferase, cherry-picked (AID 624132).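 Note: firefly luciferase luminescence from reporter carrying the Shn3 3'UTR in osteoblasts.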 It counts as functional.
Assay [2] is described as follows: control 3'UTR Renilla luciferase suppression, dose response, counter-screen for Shn3 inhibitor project, cell-based, Clone20-Shn3RL, cherry-picked (AID 624133). It counts as functional. (In general: A counterscreen serves to expose hits that act by an unwanted route or on another target.)
Assay [3] has as its target T1, Protein RecA (Mycobacterium tuberculosis, UniProt P9WHJ3).
T1 sequence (P9WHJ3 whole entry): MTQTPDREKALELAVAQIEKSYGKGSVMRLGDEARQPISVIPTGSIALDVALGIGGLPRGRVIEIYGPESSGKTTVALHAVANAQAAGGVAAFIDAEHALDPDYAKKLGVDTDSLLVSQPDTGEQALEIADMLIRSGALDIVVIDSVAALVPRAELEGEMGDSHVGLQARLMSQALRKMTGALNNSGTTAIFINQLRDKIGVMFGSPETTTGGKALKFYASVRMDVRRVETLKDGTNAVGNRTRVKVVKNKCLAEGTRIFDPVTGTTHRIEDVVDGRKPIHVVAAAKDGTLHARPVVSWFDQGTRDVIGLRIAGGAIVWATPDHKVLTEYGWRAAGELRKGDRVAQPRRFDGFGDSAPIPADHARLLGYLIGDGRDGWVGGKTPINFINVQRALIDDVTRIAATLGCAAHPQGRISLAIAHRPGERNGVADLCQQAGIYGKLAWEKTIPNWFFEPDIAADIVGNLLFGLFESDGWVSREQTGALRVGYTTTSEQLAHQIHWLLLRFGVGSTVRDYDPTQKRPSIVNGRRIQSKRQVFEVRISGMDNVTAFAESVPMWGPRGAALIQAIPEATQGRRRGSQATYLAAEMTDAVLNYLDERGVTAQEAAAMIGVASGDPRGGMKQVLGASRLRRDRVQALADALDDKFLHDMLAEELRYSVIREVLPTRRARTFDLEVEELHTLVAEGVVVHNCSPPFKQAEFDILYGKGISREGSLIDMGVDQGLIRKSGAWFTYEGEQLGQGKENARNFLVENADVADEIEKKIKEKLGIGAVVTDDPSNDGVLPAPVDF
As to the kind of experiment: Fluorescence Cell-Free Homogeneous Dose Retest to Identify Inhibitors of RecA-Intein Splicing Activity. [Related pubchem assays (depositor defined):AID2097, AID2223, AID489010, AID492950]. It is filed as functional.

Assay [4] can be described thus: HepG2 cell cytotoxicity, dose response, cytotoxicity control for Shn3 inhibitor project, CellTiter-Glo, cherry-picked (AID 624134). It counts as functional, cell-based. For orientation: In ATP-based viability assays light output follows the ATP content of the culture.
A short description of assay [5]: cytotoxicity in HEK-293T cells, dose response, cytotoxicity control for TCR NF-kB inhibitor project, luminescence, T-cell screen hits (AID 489026).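 Note: cells exposed to compound about 14 hours before the viability readout.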 It counts as functional, cell-based.
Assay [6] has as its system CHO. Briefly: cytotoxicity in TLR9-MyD88 CHO cells, dose response, cytotoxicity control for TLR9-MyD88 binding inhibitor project, cell-based, luminescence (AID 588339).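 Note: CHO cells stably coexpressing TLR9 and MyD88 fusions from primary screen; compound exposure lasted 48 hours before viability readout.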 It is filed as functional, hamster. To be noted: Cricetulus griseus.
In assay [7] the target is T2, Replicative DNA helicase DnaB (Mycobacterium tuberculosis, UniProt P9WMR3).
T2 sequence (P9WMR3 whole entry): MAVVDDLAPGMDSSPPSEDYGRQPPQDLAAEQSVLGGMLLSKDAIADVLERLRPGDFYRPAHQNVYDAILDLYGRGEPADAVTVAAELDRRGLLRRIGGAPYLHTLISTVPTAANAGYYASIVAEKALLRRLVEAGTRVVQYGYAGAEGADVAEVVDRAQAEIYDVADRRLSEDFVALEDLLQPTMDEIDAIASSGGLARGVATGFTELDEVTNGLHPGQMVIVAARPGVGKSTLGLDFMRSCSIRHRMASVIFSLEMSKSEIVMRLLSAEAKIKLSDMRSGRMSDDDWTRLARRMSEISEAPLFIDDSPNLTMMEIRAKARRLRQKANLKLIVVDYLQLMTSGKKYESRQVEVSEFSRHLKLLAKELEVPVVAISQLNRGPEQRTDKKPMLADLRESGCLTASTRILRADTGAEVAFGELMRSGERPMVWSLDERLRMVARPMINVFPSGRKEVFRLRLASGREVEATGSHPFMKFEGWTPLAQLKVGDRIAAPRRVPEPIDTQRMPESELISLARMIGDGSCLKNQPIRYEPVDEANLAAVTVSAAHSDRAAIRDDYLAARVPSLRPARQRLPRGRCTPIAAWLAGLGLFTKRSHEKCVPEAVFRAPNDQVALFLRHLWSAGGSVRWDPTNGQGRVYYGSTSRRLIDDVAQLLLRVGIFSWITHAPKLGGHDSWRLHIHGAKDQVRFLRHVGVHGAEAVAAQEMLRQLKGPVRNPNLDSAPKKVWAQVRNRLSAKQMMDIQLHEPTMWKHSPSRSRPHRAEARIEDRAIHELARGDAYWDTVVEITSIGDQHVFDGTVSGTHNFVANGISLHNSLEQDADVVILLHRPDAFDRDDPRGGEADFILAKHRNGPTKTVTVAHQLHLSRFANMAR
As to the kind of experiment: DnaB intein splicing inhibitors, dose response, biochemical, cell-free fluorescence (AID 449749). It counts as functional.

Assay [8] has as its target Sphingosine 1-phosphate receptor 1 (Homo sapiens, UniProt P21453). It is filed as functional.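 Note: Tango beta-arrestin reporter U2OS cells stimulated with S1P near its EC80; inhibitor potency meaning antagonism of receptor activation by the natural agonist.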
Assay [9] concerns the target T3, Sphingosine 1-phosphate receptor 4 (Homo sapiens, UniProt O95977).
T3 sequence (O95977 whole entry): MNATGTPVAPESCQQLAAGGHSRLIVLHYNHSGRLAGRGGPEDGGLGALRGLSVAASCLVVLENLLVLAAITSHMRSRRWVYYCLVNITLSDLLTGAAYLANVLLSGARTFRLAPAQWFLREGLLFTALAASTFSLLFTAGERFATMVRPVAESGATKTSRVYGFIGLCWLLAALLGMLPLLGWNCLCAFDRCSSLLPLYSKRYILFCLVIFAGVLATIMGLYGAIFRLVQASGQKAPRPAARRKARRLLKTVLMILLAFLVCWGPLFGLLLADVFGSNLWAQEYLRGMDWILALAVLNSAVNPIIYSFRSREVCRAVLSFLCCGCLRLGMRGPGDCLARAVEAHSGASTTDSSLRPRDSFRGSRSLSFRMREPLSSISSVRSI
As to the kind of experiment: Fluorescence dose response cell-based high throughput screening assay for antagonists of the Sphingosine 1-Phosphate Receptor 4 (S1P4). [Related pubchem assays: 1524 (Confirmation in triplicates.), 1510 (Primary screen.)]. It is filed as functional.

In assay [10] the target is Sphingosine 1-phosphate receptor 2 (Homo sapiens, UniProt O95136). Briefly: Dose Response Cell Based Assay for Antagonists of the S1P2 Receptor. [Related pubchem assays: 856, 736 ]. It is filed as functional.
The target in assay [11] is Beta Lactamase (Pseudomonas aeruginosa, UniProt Q932Y6). As to the kind of experiment: beta-lactamase reporter inhibitor potency, dose response, artefact control for TLR9-MyD88 binding inhibitor project, BLA reporter cells, FRET fluorescence (AID 588341).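 Note: cell based assay in CHO-K1 cells stably expressing beta-lactamase.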 It is filed as cell-based.
Assay [12] has as its target Peroxisome proliferator-activated receptor gamma/Nuclear receptor coactivator 3 (Homo sapiens, UniProt P37231). It counts as functional.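 Note: agonist potency for raising coactivator recruitment to the receptor.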
For assay [13], the target named is Peroxisome proliferator-activated receptor gamma/Nuclear receptor coactivator 1 (Homo sapiens, UniProt P37231). It counts as functional.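 Note: agonist potency as compounds enhance coactivator SRC-1 recruitment to PPARgamma.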
Assay [14] has as its target Peroxisome proliferator-activated receptor gamma/Nuclear receptor coactivator 2 (Homo sapiens, UniProt P37231). It counts as functional.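 Note: agonist potency for raising coactivator recruitment to the receptor.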
Assay [15] concerns the target Beta-2 adrenergic receptor (Homo sapiens, UniProt P07550). As to the kind of experiment: beta2AR agonists driving receptor internalization, dose response, cell-based, FAP fluorogen, flow cytometry, cherry pick 1 (AID 588763). It counts as functional. (In flow cytometry, cells or beads pass a laser one at a time.)
The subject of assay [16] is INS1. Briefly: protection from cytokine-induced mitochondrial depolarization, dose response, cell-based, INS-1E, JC-1 fluorescence ratio, dry powder (AID 488931). It is filed as functional. To be noted: Rattus norvegicus.
The test system of assay [17] is INS1. As to the kind of experiment: protection of INS-1E cells from cytokine death, dose response, ATP luminescence, dry powder (AID 488844). It counts as functional, cell-based. To be noted: Rattus norvegicus.
Assay [18] relates to INS1. Briefly: protection from cytokine-driven beta-cell apoptosis, dose response, JC-1 fluorescence, INS-1E, dry powder, set 2 (AID 488867). It is filed as functional, cell-based. To be noted: Rattus norvegicus.

Structures are written as SMILES. Activity calls are given as the source filed them.

Sequence of Beta Lactamase (Q932Y6 whole entry): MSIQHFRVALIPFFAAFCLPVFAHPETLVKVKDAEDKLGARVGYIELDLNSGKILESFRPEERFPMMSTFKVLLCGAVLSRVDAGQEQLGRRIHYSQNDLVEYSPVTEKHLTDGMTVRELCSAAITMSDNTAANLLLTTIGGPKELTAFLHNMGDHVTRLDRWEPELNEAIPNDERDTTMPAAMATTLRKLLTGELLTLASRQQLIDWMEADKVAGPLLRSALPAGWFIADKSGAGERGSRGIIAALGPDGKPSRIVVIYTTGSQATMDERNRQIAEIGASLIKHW
Sequence of Sphingosine 1-phosphate receptor 1 (P21453 whole entry): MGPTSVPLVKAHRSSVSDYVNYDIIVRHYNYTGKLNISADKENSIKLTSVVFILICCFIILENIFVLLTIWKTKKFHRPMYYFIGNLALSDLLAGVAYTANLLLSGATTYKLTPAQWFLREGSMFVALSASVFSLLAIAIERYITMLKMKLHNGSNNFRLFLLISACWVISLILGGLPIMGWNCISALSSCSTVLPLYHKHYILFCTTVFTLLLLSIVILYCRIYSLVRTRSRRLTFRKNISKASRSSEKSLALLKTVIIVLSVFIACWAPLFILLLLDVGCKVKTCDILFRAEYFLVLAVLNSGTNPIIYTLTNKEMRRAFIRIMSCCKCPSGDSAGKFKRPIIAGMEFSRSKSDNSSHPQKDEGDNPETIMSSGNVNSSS
Sequence of Beta-2 adrenergic receptor (P07550 whole entry): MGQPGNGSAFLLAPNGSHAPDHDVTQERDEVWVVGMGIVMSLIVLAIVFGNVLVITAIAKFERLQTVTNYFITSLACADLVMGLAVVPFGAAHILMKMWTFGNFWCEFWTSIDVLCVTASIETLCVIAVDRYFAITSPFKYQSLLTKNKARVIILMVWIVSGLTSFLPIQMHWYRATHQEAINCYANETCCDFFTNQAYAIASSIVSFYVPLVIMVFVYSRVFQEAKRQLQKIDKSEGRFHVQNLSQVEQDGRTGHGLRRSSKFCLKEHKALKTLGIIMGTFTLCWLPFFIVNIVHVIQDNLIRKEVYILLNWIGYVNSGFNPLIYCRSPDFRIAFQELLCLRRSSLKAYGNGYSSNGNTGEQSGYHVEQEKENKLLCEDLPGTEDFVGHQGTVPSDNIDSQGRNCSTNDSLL
Sequence of Peroxisome proliferator-activated receptor gamma/Nuclear receptor coactivator 1 (P37231 whole entry): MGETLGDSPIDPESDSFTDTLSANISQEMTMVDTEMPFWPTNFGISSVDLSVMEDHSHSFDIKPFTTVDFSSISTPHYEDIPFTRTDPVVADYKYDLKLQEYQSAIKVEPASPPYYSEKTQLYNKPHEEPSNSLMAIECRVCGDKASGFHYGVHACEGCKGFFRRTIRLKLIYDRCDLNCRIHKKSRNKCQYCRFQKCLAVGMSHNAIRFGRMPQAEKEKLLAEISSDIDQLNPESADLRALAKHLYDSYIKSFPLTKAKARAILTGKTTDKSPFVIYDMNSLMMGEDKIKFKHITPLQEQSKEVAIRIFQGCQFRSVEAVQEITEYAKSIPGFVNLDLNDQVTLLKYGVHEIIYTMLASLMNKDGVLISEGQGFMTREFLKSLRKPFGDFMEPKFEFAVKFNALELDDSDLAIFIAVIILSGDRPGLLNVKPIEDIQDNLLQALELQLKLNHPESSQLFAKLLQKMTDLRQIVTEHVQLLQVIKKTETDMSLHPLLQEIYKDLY
Sequence of Peroxisome proliferator-activated receptor gamma/Nuclear receptor coactivator 1 (Q15788 whole entry, further chain): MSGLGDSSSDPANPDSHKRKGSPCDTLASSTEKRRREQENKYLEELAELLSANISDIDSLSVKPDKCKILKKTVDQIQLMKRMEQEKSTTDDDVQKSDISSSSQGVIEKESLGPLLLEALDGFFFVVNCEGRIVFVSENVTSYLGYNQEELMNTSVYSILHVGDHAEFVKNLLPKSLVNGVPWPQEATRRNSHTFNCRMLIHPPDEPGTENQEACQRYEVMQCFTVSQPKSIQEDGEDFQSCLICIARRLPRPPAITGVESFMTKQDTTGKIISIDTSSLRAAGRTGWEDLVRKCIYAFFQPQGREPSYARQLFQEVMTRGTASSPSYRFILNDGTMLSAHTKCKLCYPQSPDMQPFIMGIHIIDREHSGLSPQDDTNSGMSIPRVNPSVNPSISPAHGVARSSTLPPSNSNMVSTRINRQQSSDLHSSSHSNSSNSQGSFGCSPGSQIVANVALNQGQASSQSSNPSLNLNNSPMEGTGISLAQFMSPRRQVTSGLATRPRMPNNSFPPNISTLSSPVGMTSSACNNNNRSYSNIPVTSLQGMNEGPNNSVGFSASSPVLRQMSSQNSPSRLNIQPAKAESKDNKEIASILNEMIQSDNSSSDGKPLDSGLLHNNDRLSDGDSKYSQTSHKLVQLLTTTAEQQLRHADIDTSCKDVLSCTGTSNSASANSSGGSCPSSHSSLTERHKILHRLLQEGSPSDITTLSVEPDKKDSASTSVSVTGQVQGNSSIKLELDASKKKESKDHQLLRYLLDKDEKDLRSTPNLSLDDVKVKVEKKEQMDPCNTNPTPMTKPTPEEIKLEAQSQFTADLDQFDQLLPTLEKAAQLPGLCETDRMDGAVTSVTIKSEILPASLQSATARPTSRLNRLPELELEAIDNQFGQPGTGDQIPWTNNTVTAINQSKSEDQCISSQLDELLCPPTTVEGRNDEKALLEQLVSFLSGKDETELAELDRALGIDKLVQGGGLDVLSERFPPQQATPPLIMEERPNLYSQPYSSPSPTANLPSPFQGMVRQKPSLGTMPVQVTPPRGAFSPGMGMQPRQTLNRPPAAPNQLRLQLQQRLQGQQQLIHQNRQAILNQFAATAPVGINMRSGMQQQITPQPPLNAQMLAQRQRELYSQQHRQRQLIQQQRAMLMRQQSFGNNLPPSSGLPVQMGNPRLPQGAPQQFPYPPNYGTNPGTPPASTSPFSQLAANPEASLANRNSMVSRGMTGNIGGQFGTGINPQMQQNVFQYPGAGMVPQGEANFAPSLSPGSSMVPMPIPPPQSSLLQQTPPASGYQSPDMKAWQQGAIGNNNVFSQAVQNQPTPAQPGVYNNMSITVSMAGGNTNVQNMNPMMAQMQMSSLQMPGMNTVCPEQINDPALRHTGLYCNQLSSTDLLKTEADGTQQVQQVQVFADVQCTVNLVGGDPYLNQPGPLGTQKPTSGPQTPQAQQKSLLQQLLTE
Sequence of Peroxisome proliferator-activated receptor gamma/Nuclear receptor coactivator 3 (P37231 whole entry): as the sequence (P37231 whole entry) above
Sequence of Peroxisome proliferator-activated receptor gamma/Nuclear receptor coactivator 3 (Q9Y6Q9 whole entry, further chain): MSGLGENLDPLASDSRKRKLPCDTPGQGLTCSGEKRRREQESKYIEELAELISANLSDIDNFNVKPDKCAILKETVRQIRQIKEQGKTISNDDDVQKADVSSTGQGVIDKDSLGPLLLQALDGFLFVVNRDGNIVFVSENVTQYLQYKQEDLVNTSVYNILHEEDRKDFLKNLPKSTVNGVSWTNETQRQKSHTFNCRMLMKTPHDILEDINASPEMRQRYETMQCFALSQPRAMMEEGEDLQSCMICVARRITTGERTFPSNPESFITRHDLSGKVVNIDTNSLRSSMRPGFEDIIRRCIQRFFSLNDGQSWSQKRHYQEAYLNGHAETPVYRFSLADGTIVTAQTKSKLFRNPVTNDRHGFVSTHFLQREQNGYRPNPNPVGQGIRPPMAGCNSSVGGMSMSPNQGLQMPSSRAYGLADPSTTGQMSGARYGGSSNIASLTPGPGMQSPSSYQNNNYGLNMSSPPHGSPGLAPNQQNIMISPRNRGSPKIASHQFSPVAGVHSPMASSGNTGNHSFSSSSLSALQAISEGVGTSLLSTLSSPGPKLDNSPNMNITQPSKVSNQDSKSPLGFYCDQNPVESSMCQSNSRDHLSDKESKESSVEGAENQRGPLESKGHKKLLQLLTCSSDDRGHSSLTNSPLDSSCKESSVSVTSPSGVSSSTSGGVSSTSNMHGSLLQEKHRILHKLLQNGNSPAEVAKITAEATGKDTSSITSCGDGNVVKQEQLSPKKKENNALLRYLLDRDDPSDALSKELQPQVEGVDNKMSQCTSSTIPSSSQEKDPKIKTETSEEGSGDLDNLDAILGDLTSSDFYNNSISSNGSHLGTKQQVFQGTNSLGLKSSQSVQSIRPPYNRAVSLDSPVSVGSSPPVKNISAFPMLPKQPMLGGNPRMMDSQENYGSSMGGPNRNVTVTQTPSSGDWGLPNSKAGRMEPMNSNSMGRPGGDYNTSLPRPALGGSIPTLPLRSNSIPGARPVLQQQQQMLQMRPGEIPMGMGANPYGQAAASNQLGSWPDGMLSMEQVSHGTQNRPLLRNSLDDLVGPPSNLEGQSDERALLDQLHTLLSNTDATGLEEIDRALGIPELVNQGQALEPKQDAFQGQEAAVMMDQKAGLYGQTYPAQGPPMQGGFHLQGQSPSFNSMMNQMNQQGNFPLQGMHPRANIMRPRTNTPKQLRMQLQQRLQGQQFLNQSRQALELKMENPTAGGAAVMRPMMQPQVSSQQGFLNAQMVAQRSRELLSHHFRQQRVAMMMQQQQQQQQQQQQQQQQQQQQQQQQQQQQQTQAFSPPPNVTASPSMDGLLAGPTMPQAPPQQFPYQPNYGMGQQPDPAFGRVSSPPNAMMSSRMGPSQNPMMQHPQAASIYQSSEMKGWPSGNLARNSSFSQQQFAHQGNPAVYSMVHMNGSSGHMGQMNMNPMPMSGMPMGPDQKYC

On to `COc1ccc(CS(=O)(=O)/C(Cl)=C(/Cl)C(=O)Nc2ccc(OC)nc2)cc1`, for which the concentration at half-maximal activity (AC50) (in general, the midpoint of the concentration-response curve, whichever way the signal moves) in [1] was < 0.26 µM (active); in [2], 6.84 µM (active); in [4], 10.6 µM (active); in assay [7] it was 3.88 µM (active). In assay [3], the EC50 – broadly, the concentration giving half of the maximal effect – was 3.34 µM (active). For the same compound, the IC50 (commonly the concentration at which inhibition is half-maximal) in [5] is 27.9 µM (inactive); in [6], 2.03 µM (active); in [8], 6.21 µM (active); in assay [9], 0.852 µM (active); in assay [10], 1.67 µM (active); in [11] it was > 49.7 µM (inactive).

With `Cc1cc(C)n(-c2nc(SCC(=O)Nc3nccs3)c3c4c(sc3n2)COC(C)(C)C4)n1`, the concentration giving a half-maximal response (EC50) is > 79.4 µM (not active) in assay [12], > 79.4 µM (not active) in [13], > 79.4 µM (not active) in assay [14] and 8.85 µM (inactive) in assay [15].

As for `COc1ccc(S(=O)(=O)N(C)C[C@H]2Oc3c(NC(=O)Nc4cccc5ccccc45)cccc3C(=O)N([C@@H](C)CO)C[C@@H]2C)cc1`, the values for the AC50 in assay [16], in [17] and in [18] were 104 µM (active), 85 µM (active) and > 260 µM (inactive), respectively.
